Laboratory results from paper PMC9851200, “Multiparameter phenotypic screening for endogenous TFEB and TFE3 translocation identifies novel chemical series modulating lysosome function” (Autophagy, 2022).

Legend:
SH-SY5Y cells [1] = settings: PKIS2 primary screening; for DQ Intensity: DQ Red BSA intensity; for DQ Spot: DQ Red BSA spot count
Text: The PKIS2 Library was supplied by The Structural Genomics Consortium at the University of North Carolina at Chapel Hill.

SH-SY5Y cells [2] = assay: Nuclear count from microscopy images (cellular growth and toxicity); settings: PKIS2 primary screening; also: reference of the scale not given here
endogenous TFEB = assay: TFEB nuclear translocation, immunocytochemistry high-content imaging; assay type: cell-based; settings: PKIS2 primary screening
endogenous TFE3 = assay: TFE3 nuclear translocation, immunocytochemistry high-content imaging; assay type: cell-based; settings: PKIS2 primary screening
SH-SY5Y cells [3] = assay: AK (adenylate kinase) release ToxiLight cytotoxicity assay; settings: PKIS2 primary screening; also: reference of the scale not given here
For DQ Intensity in this document: reference of the scale not given here.
For DQ Spot in this document: reference of the scale not given here.

SMILES | DQ Intensity (SH-SY5Y cells [1]) | DQ Spot (SH-SY5Y cells [1]) | Nuclear Count (SH-SY5Y cells [2]) | TFEB % (endogenous TFEB) [%] | TFE3 % (endogenous TFE3) [%] | AK (SH-SY5Y cells [3])
Nc1nccc(-c2ccc3c(N)n[nH]c3c2)n1 [GSK1034945] | 84.11 | 101.09 | 141.53 | 3.25 | 14.89 | 117.83
COc1ccc(Nc2nccc(-c3ccc(NC(=O)c4cc5cc(F)ccc5[nH]4)cc3)n2)cc1 [GSK1229496] | 79.73 | 89.01 | 129.71 | 5.47 | 10.21 | 76.92
COc1ccc(Nc2nccc(-c3cccc(NC(=O)c4cc5cc(F)ccc5[nH]4)c3)n2)cc1 [GSK1229782] | 93.16 | 110.99 | 89.95 | 2.71 | 14.29 | 91.24
COc1ccc(CNC(=O)NC2CCN(c3ccnc(Nc4ccc(F)cc4)n3)C2)cc1 (stereo not drawn) [GSK1379706] | 67.21 | 81.58 | 119.74 | 2.94 | 11.64 | 89.40
N#Cc1cccc(C(=O)NC2CCN(c3ccnc(Nc4ccc(F)cc4)n3)C2)c1 (stereo not drawn) [GSK1379708] | 97.27 | 112.33 | 107.86 | 6.02 | 11.35 | 99.36
CC(=O)c1cccc(NC(=O)NC2CCN(c3ccnc(Nc4ccc(F)cc4)n3)C2)c1 (stereo not drawn) [GSK1379710] | 124.22 | 115.02 | 98.98 | 4.15 | 16.11 | 70.15
COC(=O)C(NC(=O)NC1CCN(c2ccnc(Nc3ccc(F)cc3)n2)C1)c1ccccc1 (stereo not drawn) [GSK1379712] | 132.02 | 102.90 | 98.27 | 9.98 | 6.91 | 111.30
CC(C(=O)NC1CCN(c2ccnc(Nc3ccc(F)cc3)n2)C1)c1ccc(Cl)cc1 (stereo not drawn) [GSK1379713] | 153.18 | 124.60 | 84.41 | 6.54 | 10.33 | 94.01
COC(=O)C(Cc1ccccc1)NC(=O)NC1CCN(c2ccnc(Nc3ccc(F)cc3)n2)C1 (stereo not drawn) [GSK1379714] | 97.62 | 115.84 | 110.40 | 4.19 | 7.75 | 95.90
CCCc1ccc(S(=O)(=O)NC2CCN(c3ccnc(Nc4ccc(F)cc4)n3)C2)cc1 (stereo not drawn) [GSK1379715] | 80.29 | 105.29 | 97.10 | 6.97 | 11.31 | 100.57
O=C(NC1CCN(c2ccnc(Nc3ccc(F)cc3)n2)C1)c1cc2ccccc2s1 (stereo not drawn) [GSK1379716] | 72.95 | 96.75 | 86.00 | 2.96 | 24.94 | 79.19
Cn1cncc1C(=O)NC1CCN(c2ccnc(Nc3ccc(F)cc3)n2)C1 (stereo not drawn) [GSK1379717] | 84.19 | 97.80 | 85.90 | 3.86 | 10.47 | 113.98
Cc1ccc(C)c(NC(=O)NC2CCN(c3ccnc(Nc4ccc(F)cc4)n3)C2)c1 (stereo not drawn) [GSK1379720] | 115.10 | 109.75 | 92.38 | 6.06 | 10.49 | 98.80
COc1cccc(NC(=O)NC2CCN(c3ccnc(Nc4ccc(F)cc4)n3)C2)c1 (stereo not drawn) [GSK1379721] | 94.47 | 102.23 | 112.40 | 3.00 | 13.36 | 103.41
O=C(Nc1ccccc1F)NC1CCN(c2ccnc(Nc3ccc(F)cc3)n2)C1 (stereo not drawn) [GSK1379722] | 129.34 | 121.71 | 114.62 | 14.40 | 10.71 | 94.79
COc1cccc(CNC(=O)NC2CCN(c3ccnc(Nc4ccc(F)cc4)n3)C2)c1 (stereo not drawn) [GSK1379723] | 104.41 | 106.33 | 83.60 | 8.63 | 22.56 | 98.00
O=C(Nc1ccc2c(c1)OCO2)NC1CCN(c2ccnc(Nc3ccc(F)cc3)n2)C1 (stereo not drawn) [GSK1379724] | 90.09 | 99.32 | 89.10 | 3.86 | 7.39 | 104.22
COC(=O)c1cccc(NC(=O)NC2CCN(c3ccnc(Nc4ccc(F)cc4)n3)C2)c1 (stereo not drawn) [GSK1379725] | 80.47 | 88.32 | 95.32 | 7.57 | 21.26 | 90.74
COc1ccc(CNC(=O)NC2CCN(c3ccnc(Nc4ccc(OC)cc4)n3)C2)cc1 (stereo not drawn) [GSK1379727] | 79.60 | 81.20 | 118.16 | 4.74 | 11.01 | 96.08
COc1ccc(Nc2nccc(N3CCC(NS(=O)(=O)c4ccc(NC(C)=O)cc4)C3)n2)cc1 (stereo not drawn) [GSK1379729] | 76.81 | 100.23 | 90.61 | 5.22 | 16.51 | 69.35
COc1ccc(Nc2nccc(N3CCC(NC(=O)c4cccc(C#N)c4)C3)n2)cc1 (stereo not drawn) [GSK1379730] | 67.56 | 85.55 | 108.33 | 9.20 | 13.54 | 125.87
COc1ccc(Nc2nccc(N3CCC(NC(=O)Nc4cccc(C(C)=O)c4)C3)n2)cc1 (stereo not drawn) [GSK1379731] | 109.14 | 92.48 | 122.85 | 9.04 | 14.27 | 78.89
COc1ccc(Nc2nccc(N3CCC(NC(=O)c4cccc(NC(C)=O)c4)C3)n2)cc1 (stereo not drawn) [GSK1379732] | 114.89 | 106.49 | 135.73 | 5.92 | 6.22 | 83.81
COc1ccc(Nc2nccc(N3CCC(NC(=O)C(C)c4ccc(Cl)cc4)C3)n2)cc1 (stereo not drawn) [GSK1379735] | 99.92 | 94.04 | 119.80 | 5.13 | 11.71 | 70.53
CCCc1ccc(S(=O)(=O)NC2CCN(c3ccnc(Nc4ccc(OC)cc4)n3)C2)cc1 (stereo not drawn) [GSK1379737] | 83.70 | 93.35 | 116.08 | 5.95 | 12.75 | 106.07
COc1ccc(Nc2nccc(N3CCC(NC(=O)c4cc5ccccc5s4)C3)n2)cc1 (stereo not drawn) [GSK1379738] | 52.05 | 80.56 | 101.04 | 5.33 | 9.69 | 106.01
COc1ccc(Nc2nccc(N3CCC(NC(=O)Nc4cc(C)ccc4C)C3)n2)cc1 (stereo not drawn) [GSK1379741] | 91.14 | 90.28 | 115.70 | 3.59 | 9.28 | 100.67
